Measured values from patent US20130171217A1, “ENZYMATIC PERACID GENERATION FOR USE IN SKIN CARE PRODUCTS” (E I DU PONT DE NEMOURS AND COMPANY, priority 2010, published 2013).

Assays:
[1] = Single fiber tensile strength test of hair after chemical treatment (NAIR, PAA, bleach creams, reductive solution, triacetin/H2O2)
From the text: Since the quality and diameter of the hair samples are variables, hair sample pre-selection is used to achieve reasonable standard deviation in the tensile strength test. […] To prevent contamination, gloves were used while handing hair fiber samples.
Plastic transfer pipette tubes were cut to 2^7/8 inches (approximately 7.3 cm) by cutting off the bulb end. A hair bundle with 7 to 20 hair strands was carefully inserted into the tube keeping the hair fibers together by taping one end together and attached to the outside top of the wider end of the transfer pipette. This also helped to keep the strands in place once in the tube.
Solution/cream (200 μL) was added to a 2.0-mL microfuge tube. The hair sample was placed into tube by inserting the smaller end of transfer pipette inside tube with hair protruding out of the tip such that the hair strands formed a U shape and the free end of the strands hung loosely outside of the microfuge tube.
After certain application, hair samples were dried and equilibrated in the temperature and humidity control room for at least 12 hr, preferably 24 hr, before tensile strength test.
Hair samples were cut into pieces 4-inches in length. The denier number (liner mass density) of each hair fiber was measured by Textechno Vibromat Instrument (Textechno Herbert Stein GmbH & Co. KG; Germany). The hair fibers were tested according to ASTM D 3822-01 (“Tensile Properties of Single Textile Fibers”; ASTM International, West Conshohocken, Pa., 2001), on an Instron testing system (Instron Model 1122 Tester; Instron, Mass.) at about 70° F. (approximately 21° C.) and 65% relative humidity. The treated area of the hair sample was placed in the middle of the gauge and both ends were gripped on the test heads. Both fiber ends were attached on a piece of tape, respectively, for easy handling and gripping on the test heads. The test used 2-inch (5.1 cm) gauge length, […], and 1.2 inch/min (3 cm/min) pulling rate. The force-strain curve of the fiber was recorded during the test. The tenacity at maximum (gf/den) was calculated by dividing maximum force (gf) by denier number (den). Note that (gf/den)/11.33=Newtons/tex (N/tex).
Tenacity at maximum (tensile strength) of each hair sample was used to compare the integrity of the hair sample. A lower value of the tenacity at maximum is indicative of an improved weakening efficacy. A commercial depilatory cream, NAIR® (an alkali/potassium thioglycolate-based hair removal product from Church and Dwight Co., Inc., Princeton, N.J.), was used to set a target level for hair weakening. Based on the NAIR® product instruction, the recommended treatment time is 3 min to 10 min. Therefore, the tenacity at maximum of a hair sample treated with NAIR® between 3 min to 10 min was used to determine the target level. During hair treatment, about 200 μL of NAIR® cream was added to a 2-mL microfuge tube and hair samples were soaked in the cream for 3, 5 and 10 min. Hair samples were then rinsed with tape water to remove all the cream and then were dried under a stream of N2. […] Therefore, the desired level of hair weakening efficacy was targeted in the range from 0.8 gf/den to 1.3 gf/den under similar testing conditions.
Peracetic acid was added in 50 mM phosphate buffer to prepare solutions with different PAA concentrations at pH 6 and pH 8. A PAA solution (200 μL) was added to a 2-mL microfuge tube and hair samples were inserted for 2 hours. Hair samples were then rinsed with deionized water and dried under N2.
[…] […] The treatment was repeated for 7 times or 15 times, i.e., 4 hours and 8 hours of total exposure time, respectively.
The same multiple treatment as in Example 3 was applied with two commercially available hydrogen peroxide-based bleaching creams (SALLY HANSEN® bleach cream for face and SALLY HANSEN® extra strength bleach cream for face & body; Del Laboratories, Inc., Uniondale, N.Y.) and 6 wt % hydrogen peroxide (H2O2) in a similar pH 8, 20% urea, phosphate solution. […]

[2] = Wool removal from sheep pelt strips by PAA solutions; conditions: 15 wt % urea, pH 8
Protocol: To evaluate the efficacy of PAA solution on removing the wool from a sheep pelt sample, the following experiment was carried out. Pelt strips (0.5 cm×3 cm) were cut and the wool fibers were trimmed to a length of 0.2 cm. Each solution (50 μL) was applied on separated pelt strip (half of the length treated and half of the length untreated). The pelt strip samples were allowed to stand for 10 min at room temperature ([…]). Excess liquid was removed by blotting and the samples were put inside a plastic tube for 30 min for further treatment and then washed with 50 μL of a 2% sodium lauryl ether sulfate (SLES) solution, rinsed with tap water (excess liquid was removed by blotting), and then dried under N2. The treatment was repeated until the wool fibers in treated area were all removed. Three different solutions were tested using this protocol, a) 0.6 wt % PAA, 15 wt % urea, with 0.5 wt % SLES in a pH 8, 50 mM phosphate buffer; b) 0.6 wt % PAA and 15 wt % urea in a pH 8, 50 mM phosphate buffer; c) 0.2 wt % PAA, 15 wt % urea, 0.5 wt % SLES in a pH 8, 50 mM phosphate buffer. At the 19th, 23rd, 24th application, respectively, the wool fibers on the samples treated with solution (a), (b) and (c) were completely removed. The addition of 0.5 wt % SLES seems to accelerate the wool removal process.

In the case of CC(=O)OO [PAA, peracetic acid], the “Ten. @ Max” value ([1]; [PAA] 0.01 wt % then reductive solution (5 wt % potassium thioglycolate, pH 7.5), 20 min × 16, urea 10 wt %) was 1.2 gf/den, the “Ten. @ Max” value ([1]; [PAA] 0.01 wt %, 20 min × 16, urea 10 wt %, pH 8) was 1.7 gf/den and the “Ten. @ Max” value ([1]; [PAA] 0.02 wt % then reductive solution, 20 min × 16, urea 10 wt %) was 1.6 gf/den. For the same compound, the “Ten. @ Max” value ([1]; [PAA] 0.02 wt %, 20 min × 16, urea 10 wt %, pH 8) was 1.7 gf/den, the “Ten. @ Max” value ([1]; [PAA] 0.02 wt %, soaking 2 hr, pH 6) was 1.7 gf/den and the “Ten. @ Max” value ([1]; [PAA] 0.02 wt %, soaking 2 hr, urea 0 wt %) was 1.6 gf/den. For the same compound, the “Ten. @ Max” value ([1]; [PAA] 0.02 wt %, soaking 4 hr, urea 20 wt %) was 1.7 gf/den, the “Ten. @ Max” value ([1]; [PAA] 0.05 wt % then reductive solution, 20 min × 16, urea 10 wt %) was 0.8 gf/den and the “Ten. @ Max” value ([1]; [PAA] 0.05 wt %, 20 min × 16, urea 10 wt %, pH 8) was 1.5 gf/den. The “Ten. @ Max” value ([1]; [PAA] 0.10 wt % then reductive solution, 20 min × 8, urea 10 wt %) was 0.9 gf/den, the “Ten. @ Max” value ([1]; [PAA] 0.10 wt %, 20 min × 16, urea 10 wt %, pH 8) was 1.1 gf/den and the “Ten. @ Max” value ([1]; [PAA] 0.20 wt % then reductive solution, 20 min × 8, urea 10 wt %) was 0.7 gf/den. For the same compound, the “Ten. @ Max” value ([1]; [PAA] 0.20 wt %, 20 min × 16, urea 10 wt %, pH 8) was 0.7 gf/den, the “Ten. @ Max” value ([1]; [PAA] 0.20 wt %, 30 min × 8, urea 20 wt %, pH 8) was 1.3 gf/den and the “Ten. @ Max” value ([1]; [PAA] 0.20 wt %, 30 min × 16, urea 20 wt %, pH 8) was 0.6 gf/den. For the same compound, the “Ten. @ Max” value ([1]; [PAA] 0.20 wt %, soaking 2 hr, pH 6) was 1.5 gf/den, the “Ten. @ Max” value ([1]; [PAA] 0.20 wt %, soaking 2 hr, pH 8) was 1.6 gf/den and the “Ten. @ Max” value ([1]; [PAA] 0.20 wt %, soaking 2 hr, urea 20 wt %) was 1.6 gf/den. The “Ten. @ Max” value ([1]; [PAA] 0.20 wt %, soaking 4 hr, urea 20 wt %) was 1.5 gf/den, the “Ten. @ Max” value ([1]; [PAA] 0.60 wt %, 30 min × 8, urea 20 wt %, pH 8) was 0.4 gf/den and the “Ten. @ Max (hair integrity)” value ([1]; [PAA] 0.60 wt %, 30 min × 16, urea 20 wt %, pH 8) was “NA: Not applicable as all hair strains in sample 6 lost their integrity before the 16th application and could not be analyzed”. The “Ten. @ Max” value ([1]; [PAA] 0.60 wt %, soaking 2 hr, pH 6) was 1.3 gf/den, the “Ten. @ Max” value ([1]; [PAA] 0.60 wt %, soaking 2 hr, pH 8) was 1.3 gf/den and the “Ten. @ Max” value ([1]; [PAA] 0.60 wt %, soaking 2 hr, urea 0 wt %) was 1.3 gf/den. The “Ten. @ Max” value ([1]; [PAA] 0.60 wt %, soaking 2 hr, urea 20 wt %) was 1.4 gf/den, the “Ten. @ Max” value ([1]; [PAA] 0.60 wt %, soaking 4 hr, urea 0 wt %) was 1.2 gf/den and the “Ten. @ Max” value ([1]; [PAA] 0.60 wt %, soaking 4 hr, urea 20 wt %) was 0.8 gf/den. The “Ten. @ Max” value ([1]; [PAA] 2.00 wt %, soaking 2 hr, pH 6) was 0.9 gf/den, the “Ten. @ Max” value ([1]; [PAA] 2.00 wt %, soaking 2 hr, pH 8) was 0.8 gf/den and the “effective PAA concentration” value ([1]; longer soaking time and 20% urea) was “about 0.6 wt %”. The “effective PAA concentration to achieve target hair weakening level” value ([1]; multiple treatments up to 16 times, 20 wt % urea) was 0.2 wt %, the “PAA concentration needed to achieve the targeted hair weakening level” value ([1]; single application, 2 hours, pH 6 and pH 8) was “greater than 0.6 wt %” and the “application at which the wool fibers were completely removed” value (from here on “application”) ([2]; solution (a): 0.6 wt % PAA, 0.5 wt % SLES) was 19 application. The “application” value ([2]; solution (b): 0.6 wt % PAA) was 23 application and the “application” value ([2]; solution (c): 0.2 wt % PAA, 0.5 wt % SLES) was 24 application.
